IC50, EC50 and inhibition data for nine compounds are collected here from patent publication US9155743B2, “Bicyclic heterocycle compounds and their uses in therapy” (priority 2011, dated 2015).

SMILES strings stand for the structures. pEC50, pIC50: −log10 of the molar value. Where a name gives a salt, the structure may show the parent alone. Read-outs that look alike come from different tables or passages of the source.

Broadly, the pEC50 is −log10 of the EC50, conventionally taken in molar units. A word on the inhibition: it is the change of the read-out against control, counted positive when it falls.

For one assay, the system named is XIAP or cIAP1. The assay can be described thus: Assays using XIAP and cIAP1 (result stated for XIAP or cIAP1). It is filed as binding, human. The settings on record: against XIAP or cIAP1.
The target in the next assay is cIAP-1 BIR3 domain (Homo sapiens (Human), UniProt Q13490). Put plainly: cIAP-1 in vitro competitive displacement binding assay (fluorescence polarization). The settings on record: given as ranges, read-out: IC50 or PI cIAP1.
Assay [1] deals with EVSA-T (human breast carcinoma). The assay can be described thus: Anti-proliferative activity, Alamar Blue assay, EVSA-T. The assay is classed as cell-based. Background: The colour change of resazurin is a common sign of viable cells or microbes.
Another assay addresses XIAP BIR3 domain (Homo sapiens (Human), UniProt P98170). Put plainly: XIAP in vitro competitive displacement binding assay (fluorescence polarization). The settings on record: given as ranges; a range also covers PI >= approx 50% at <= the upper concentration; read-out: IC50 or PI Xiap. (In general: In fluorescence polarisation assays a small probe gives low polarisation when free and higher when bound to something large.)

The mark [2] stands for this setting: read-out: IC50 or at least 50% inhibition of the activity at a concentration of 1 μM.
Where [3] appears, read: read-out: IC50 or at least 50% inhibition of the activity at a concentration of 10 μM.
Setting [4] is: AbuRPFK(5&6FAM)-amide probe (Probe B).
Where [5] appears, read: EVSA-T, 72 hours compound incubation, read-out: EC50 or PI EVSA-T prolif.
[6] abbreviates: read-out: EC50 or greater than 50% at 10 μM, EVSA-T cell line.

As for `CN[C@@H](C)C(=O)Nc1ccc2c(n1)CN(C(C)C(C)C)C(=O)N2c1cccc(Cl)c1` (stereo partly drawn) [Example 36, (S)—N-[1-(3-Chloro-phenyl)-3-(1,2-dimethyl-propyl)-2-oxo-1,2,3,4-tetrahydro-pyrido[3,2-d]pyrimidin-6-yl]-2-methylamino-propionamide], the pIC50 in the assay with XIAP or cIAP1 (setting [2]) is > 6.00; with XIAP or cIAP1 (setting [3]), > 5.00; on cIAP-1 BIR3 domain (setting [4]) it was 6.00 to 8.00; on XIAP BIR3 domain, 6.00 to 8.00. For the same compound, the pEC50 in assay [1] (setting [5]) is 6.06; in assay [1] (setting [6]), > 5.00.
For `CN[C@@H](C)C(=O)Nc1ccc2c(n1)CN(c1cccc(Cl)c1)C(=O)N2c1cccc(Cl)c1` [Example 24, (S)—N-[1,3-Bis-(3-chloro-phenyl)-2-oxo-1,2,3,4-tetrahydro-pyrido[3,2-d]pyrimidin-6-yl]-2-methylamino-propionamide hydrochloride], the pIC50 in the assay with XIAP or cIAP1 (setting [2]) is > 6.00; in the assay with XIAP or cIAP1 (setting [3]), > 5.00; at cIAP-1 BIR3 domain (setting [4]) it was 6.00 to 8.00; at XIAP BIR3 domain it was 6.00 to 8.00. In addition, the pEC50 in assay [1] (setting [5]) was 6.44; in assay [1] (setting [6]) it was > 5.00.
For the compound `CN[C@@H](C)C(=O)Nc1ccc2c(n1)OC1(CCCCC1)C(=O)N2c1ccc(Cl)cc1` [Example 7, (2S)-N-[4′-(4-Chlorophenyl)-3′-oxo-3′,4′-dihydrospiro[cyclohexane-1,2′-pyrido[2,3-b][1,4]oxazine]-7′-yl]-2-(methylamino)propanamide hydrochloride], the pIC50 with XIAP or cIAP1 (setting [2]) is > 6.00; in the assay with XIAP or cIAP1 (setting [3]) it was > 5.00; at cIAP-1 BIR3 domain (setting [4]), 6.00 to 8.00; on XIAP BIR3 domain, 6.00 to 8.00. Moreover, the pEC50 in assay [1] (setting [5]) is 6.36; in assay [1] (setting [6]), > 5.00.
Turning to `CN[C@@H](C)C(=O)Nc1ccc2c(n1)O[C@@](C)(c1ccccc1)C(=O)N2c1ccc(Cl)cc1` [Example 3, (S)—N—[(S)-1-(4-Chloro-phenyl)-3-methyl-2-oxo-3-phenyl-2,3-dihydro-1H-pyrido[2,3-b][1,4]oxazin-6-yl]-2-methylamino-propionamide hydrochloride], the pIC50 was > 6.00 with XIAP or cIAP1 (setting [2]), > 5.00 with XIAP or cIAP1 (setting [3]), 6.00 to 8.00 at cIAP-1 BIR3 domain (setting [4]) and 6.00 to 8.00 on XIAP BIR3 domain. Moreover, the pEC50 in assay [1] (setting [5]) is 6.55; in assay [1] (setting [6]) it was > 5.00.
For `CN[C@@H](C)C(=O)Nc1ccc2c(n1)CN(C(C)C1CCC1)C(=O)N2c1cccc(Cl)c1` (stereo partly drawn) [Example 37, (S)-N-[1-(3-Chloro-phenyl)-3-(1-cyclobutyl-ethyl)-2-oxo-1,2,3,4-tetrahydro-pyrido[3,2-d]pyrimidin-6-yl]-2-methylamino-propionamide hydrochloride], the pIC50 is > 6.00 with XIAP or cIAP1 (setting [2]), > 5.00 in the assay on XIAP or cIAP1 (setting [3]), 6.00 to 8.00 on cIAP-1 BIR3 domain (setting [4]) and 6.00 to 8.00 at XIAP BIR3 domain. For the same compound, the values for the pEC50 in assay [1] (setting [5]) and in assay [1] (setting [6]) were 6.21 and > 5.00, respectively.
Take `CN[C@@H](C)C(=O)Nc1ccc2c(n1)OC(C)(C)C(=O)N2c1ccc(Cl)cc1` [Example 6, (S)-N-[1-(4-Chloro-phenyl)-3,3-dimethyl-2-oxo-2,3-dihydro-1H-pyrido[2,3-b][1,4]oxazin-6-yl]-2-methylamino-propionamide hydrochloride]: the pIC50 is > 6.00 in the assay with XIAP or cIAP1 (setting [2]), > 5.00 in the assay with XIAP or cIAP1 (setting [3]), 6.00 to 8.00 on cIAP-1 BIR3 domain (setting [4]) and 6.00 to 8.00 at XIAP BIR3 domain. The figures for the pEC50 in assay [1] (setting [5]) and in assay [1] (setting [6]) were 6.92 and > 5.00, respectively.
As to `CN[C@@H](C)C(=O)Nc1ccc2c(n1)OC(C)(C1CCCC1)C(=O)N2c1cccc(Cl)c1` (stereo partly drawn) [Example 13, (S)-N-[1-(3-Chloro-phenyl)-3-cyclopentyl-3-methyl-2-oxo-2,3-dihydro-1H-pyrido[2,3-b][1,4]oxazin-6-yl]-2-methylamino-propionamide hydrochloride], the pIC50 is > 6.00 in the assay with XIAP or cIAP1 (setting [2]), > 5.00 with XIAP or cIAP1 (setting [3]), 6.00 to 8.00 at cIAP-1 BIR3 domain (setting [4]) and 6.00 to 8.00 at XIAP BIR3 domain. Further, the pEC50 in assay [1] (setting [5]) is 6.77; in assay [1] (setting [6]) it was > 5.00.
As to `CN[C@@H](C)C(=O)Nc1ccc2c(n1)O[C@@H](Cc1ccccc1)C(=O)N2` [Example 4, (S)—N—((S)-3-Benzyl-2-oxo-2,3-dihydro-1H-pyrido[2,3-b][1,4]oxazin-6-yl)-2-methylamino-propionamide hydrochloride], the pIC50 in the assay with XIAP or cIAP1 (setting [2]) was > 6.00; with XIAP or cIAP1 (setting [3]), > 5.00; at cIAP-1 BIR3 domain (AVPIK(5&6FAM)-amide probe (Probe A)), 6.00 to 8.00; on XIAP BIR3 domain it was 5.00 to 6.00. In addition, the inhibition at 10 µM in assay [1] (EVSA-T, at 10 μM, read-out: EC50 or PI EVSA-T prolif (percentage inhibition)) was -13%.
Take `CN[C@@H](C)C(=O)Nc1ccc2c(n1)OC1(Cc3ccccc3C1)C(=O)N2c1ccc(Cl)cc1` [Example 9, (2S)-N-[4′-(4-Chlorophenyl)-3′-oxo-1,3,3′,4′-tetrahydrospiro[indene-2,2′-pyrido[2,3-b][1,4]oxazine]-7′-yl]-2-(methylamino)propanamide hydrochloride]: the pIC50 with XIAP or cIAP1 (setting [2]) is > 6.00; in the assay on XIAP or cIAP1 (setting [3]), > 5.00; on cIAP-1 BIR3 domain (setting [4]), 6.00 to 8.00; at XIAP BIR3 domain, 6.00 to 8.00. The negative-log EC50 (pEC50) in assay [1] (setting [5]) is 6.92; in assay [1] (setting [6]), > 5.00.
